These results are taken from ChEMBL document CHEMBL3612043, “Synthesis and biological evaluation of 6-substituted indolizinoquinolinediones as catalytic DNA topoisomerase I inhibitors” (Eur J Med Chem, 2015).

Calls of active or inactive are those of the source. No cut-off for these calls is given here.

Test [1] has as its target T1, DNA topoisomerase 1 (Homo sapiens) (UniProt P11387).
T1 sequence (whole entry): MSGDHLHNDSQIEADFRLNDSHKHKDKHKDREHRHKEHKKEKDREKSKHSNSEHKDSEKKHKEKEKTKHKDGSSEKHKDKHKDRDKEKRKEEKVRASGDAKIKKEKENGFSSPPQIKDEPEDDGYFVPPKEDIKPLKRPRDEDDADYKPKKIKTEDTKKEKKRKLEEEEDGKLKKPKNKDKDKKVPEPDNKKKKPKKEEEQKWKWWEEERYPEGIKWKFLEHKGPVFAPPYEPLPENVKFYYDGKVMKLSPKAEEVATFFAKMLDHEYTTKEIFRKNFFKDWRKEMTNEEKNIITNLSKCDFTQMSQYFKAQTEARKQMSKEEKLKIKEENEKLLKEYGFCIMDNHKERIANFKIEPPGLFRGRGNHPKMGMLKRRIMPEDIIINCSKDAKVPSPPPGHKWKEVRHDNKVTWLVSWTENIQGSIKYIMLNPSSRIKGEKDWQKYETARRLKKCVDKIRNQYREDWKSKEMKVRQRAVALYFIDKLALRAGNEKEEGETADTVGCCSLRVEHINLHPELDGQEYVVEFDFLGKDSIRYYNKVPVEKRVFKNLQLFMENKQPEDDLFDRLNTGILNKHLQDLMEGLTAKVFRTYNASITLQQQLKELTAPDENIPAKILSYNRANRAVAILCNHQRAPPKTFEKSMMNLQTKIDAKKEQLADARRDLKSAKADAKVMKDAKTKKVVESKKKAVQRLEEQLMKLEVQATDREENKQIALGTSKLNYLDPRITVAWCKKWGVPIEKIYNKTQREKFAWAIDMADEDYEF
As to the kind of experiment: Induction of recombinant Top1 (unknown origin) assessed as 3'-[32P]-labeled 117-bp DNA oligonucleotide cleavage after 20 mins.

Test [2] can be described thus: Inhibition of calf thymus Top1-mediated pBR322 DNA relaxation preincubated for 15 mins measured after 30 mins by ethidium bromide staining. On the set-up: species or system Bos taurus.
The species named for test [3] is Bos taurus. As to the kind of experiment: Inhibition of calf thymus Top1-mediated pBR322 DNA relaxation at 25 uM preincubated for 15 mins measured after 30 mins by ethidium bromide staining relative to camptothecin.
Test [4] concerns CA46. Description: Cytotoxicity against human CA46 cells after 48 hrs by MTT assay. It is filed as functional, cell-based. Particulars: CA46, 48 h. Background: Formazan colour is commonly taken as a measure of viable cells.
Test [5] deals with HL-60. Description: cells. The note with it: Homo sapiens, HL-60, 48 h.
Description: Cytotoxicity against human HL60 cells after 48 hrs by MTT assay
Test [6] relates to HeLa. As to the kind of experiment: cells. Particulars: Homo sapiens, 48 h.
Description: Cytotoxicity against human HeLa cells after 48 hrs by MTT assay
In test [7] the test system is A549. As to the kind of experiment: cells. Particulars: Homo sapiens, A549, 48 h.
Description: Cytotoxicity against human A549 cells after 48 hrs by MTT assay
Test [8] has as its target T1, DNA topoisomerase 1 (Homo sapiens). Description: Inhibition of Top1 (unknown origin)-mediated unwinding of relaxed pBR322 DNA preincubated for 10 mins measured after 30 mins by UV transilluminator analysis.

For the molecule `CC[C@@]1(O)C(=O)OCc2c1cc1n(c2=O)Cc2cc3ccccc3nc2-1` [CAMPTOTHECIN], the outcome in test [1] was inactive. In addition, the IC50 (in general, the concentration that gives 50% inhibition) in test [2] stood at 25 µM; in test [4], 0.52 µM; in test [5], 0.015 µM; in test [6] it was 14 µM; in test [7] it was 1.6 µM. For the same molecule, in test [3], the Top1 relaxation inhibition relative to camptothecin (%) worked out at 81%.
As for `CN(C)CCNC(=O)c1c2c(n3ccccc13)C(=O)c1ncccc1C2=O`, in test [1], the outcome was inactive. Further, the Top1 relaxation inhibition relative to camptothecin (%) in test [3] was > 120%. Also, the inhibition result in test [8] was “Active”. Moreover, the IC50 in test [4] came to 5.9 µM; in test [5], 1.2 µM; in test [6], 0.92 µM; in test [7] it was 0.61 µM.
Take `O=C1c2cccnc2C(=O)c2c1c(C(=O)OCCCN1CCCCC1)c1ccccn21`: the outcome in test [1] was inactive. In addition, the Top1 relaxation inhibition relative to camptothecin (%) in test [3] was > 120%. Moreover, in test [8], the inhibition entry is “Active”. Moreover, the IC50 stood at 0.9 µM in test [4], 0.025 µM in test [5], 0.48 µM in test [6] and 1 µM in test [7].
